Measurements reported in patent publication US5051403A (priority 1989, dated 1991).
“And” between values parts separate entries of the source, which are not always exact repeats. Equal entries are not always repeated. Bridge positions count the residues as written; N and C are the ends. Square brackets hold non-standard residues; d marks the D form. Ends that are not written are not given here. Peptide text beside a SMILES is read from it. * marks the point of attachment. Hyp = O=C(O)[C@@H]1C[C@@H](O)CN1; Acm = CC(=O)NC*

Molecular target: OCT binding sites, elasmobranch electric organ synaptosomes (Diplobatis ommata, UniProt P56698)
Assay: biochemical
Design: species or system Ommata dyscopyge (marine electric ray)
Conditions: pKi

Chain of OCT binding sites, elasmobranch electric organ synaptosomes (P56698 whole entry, looked up): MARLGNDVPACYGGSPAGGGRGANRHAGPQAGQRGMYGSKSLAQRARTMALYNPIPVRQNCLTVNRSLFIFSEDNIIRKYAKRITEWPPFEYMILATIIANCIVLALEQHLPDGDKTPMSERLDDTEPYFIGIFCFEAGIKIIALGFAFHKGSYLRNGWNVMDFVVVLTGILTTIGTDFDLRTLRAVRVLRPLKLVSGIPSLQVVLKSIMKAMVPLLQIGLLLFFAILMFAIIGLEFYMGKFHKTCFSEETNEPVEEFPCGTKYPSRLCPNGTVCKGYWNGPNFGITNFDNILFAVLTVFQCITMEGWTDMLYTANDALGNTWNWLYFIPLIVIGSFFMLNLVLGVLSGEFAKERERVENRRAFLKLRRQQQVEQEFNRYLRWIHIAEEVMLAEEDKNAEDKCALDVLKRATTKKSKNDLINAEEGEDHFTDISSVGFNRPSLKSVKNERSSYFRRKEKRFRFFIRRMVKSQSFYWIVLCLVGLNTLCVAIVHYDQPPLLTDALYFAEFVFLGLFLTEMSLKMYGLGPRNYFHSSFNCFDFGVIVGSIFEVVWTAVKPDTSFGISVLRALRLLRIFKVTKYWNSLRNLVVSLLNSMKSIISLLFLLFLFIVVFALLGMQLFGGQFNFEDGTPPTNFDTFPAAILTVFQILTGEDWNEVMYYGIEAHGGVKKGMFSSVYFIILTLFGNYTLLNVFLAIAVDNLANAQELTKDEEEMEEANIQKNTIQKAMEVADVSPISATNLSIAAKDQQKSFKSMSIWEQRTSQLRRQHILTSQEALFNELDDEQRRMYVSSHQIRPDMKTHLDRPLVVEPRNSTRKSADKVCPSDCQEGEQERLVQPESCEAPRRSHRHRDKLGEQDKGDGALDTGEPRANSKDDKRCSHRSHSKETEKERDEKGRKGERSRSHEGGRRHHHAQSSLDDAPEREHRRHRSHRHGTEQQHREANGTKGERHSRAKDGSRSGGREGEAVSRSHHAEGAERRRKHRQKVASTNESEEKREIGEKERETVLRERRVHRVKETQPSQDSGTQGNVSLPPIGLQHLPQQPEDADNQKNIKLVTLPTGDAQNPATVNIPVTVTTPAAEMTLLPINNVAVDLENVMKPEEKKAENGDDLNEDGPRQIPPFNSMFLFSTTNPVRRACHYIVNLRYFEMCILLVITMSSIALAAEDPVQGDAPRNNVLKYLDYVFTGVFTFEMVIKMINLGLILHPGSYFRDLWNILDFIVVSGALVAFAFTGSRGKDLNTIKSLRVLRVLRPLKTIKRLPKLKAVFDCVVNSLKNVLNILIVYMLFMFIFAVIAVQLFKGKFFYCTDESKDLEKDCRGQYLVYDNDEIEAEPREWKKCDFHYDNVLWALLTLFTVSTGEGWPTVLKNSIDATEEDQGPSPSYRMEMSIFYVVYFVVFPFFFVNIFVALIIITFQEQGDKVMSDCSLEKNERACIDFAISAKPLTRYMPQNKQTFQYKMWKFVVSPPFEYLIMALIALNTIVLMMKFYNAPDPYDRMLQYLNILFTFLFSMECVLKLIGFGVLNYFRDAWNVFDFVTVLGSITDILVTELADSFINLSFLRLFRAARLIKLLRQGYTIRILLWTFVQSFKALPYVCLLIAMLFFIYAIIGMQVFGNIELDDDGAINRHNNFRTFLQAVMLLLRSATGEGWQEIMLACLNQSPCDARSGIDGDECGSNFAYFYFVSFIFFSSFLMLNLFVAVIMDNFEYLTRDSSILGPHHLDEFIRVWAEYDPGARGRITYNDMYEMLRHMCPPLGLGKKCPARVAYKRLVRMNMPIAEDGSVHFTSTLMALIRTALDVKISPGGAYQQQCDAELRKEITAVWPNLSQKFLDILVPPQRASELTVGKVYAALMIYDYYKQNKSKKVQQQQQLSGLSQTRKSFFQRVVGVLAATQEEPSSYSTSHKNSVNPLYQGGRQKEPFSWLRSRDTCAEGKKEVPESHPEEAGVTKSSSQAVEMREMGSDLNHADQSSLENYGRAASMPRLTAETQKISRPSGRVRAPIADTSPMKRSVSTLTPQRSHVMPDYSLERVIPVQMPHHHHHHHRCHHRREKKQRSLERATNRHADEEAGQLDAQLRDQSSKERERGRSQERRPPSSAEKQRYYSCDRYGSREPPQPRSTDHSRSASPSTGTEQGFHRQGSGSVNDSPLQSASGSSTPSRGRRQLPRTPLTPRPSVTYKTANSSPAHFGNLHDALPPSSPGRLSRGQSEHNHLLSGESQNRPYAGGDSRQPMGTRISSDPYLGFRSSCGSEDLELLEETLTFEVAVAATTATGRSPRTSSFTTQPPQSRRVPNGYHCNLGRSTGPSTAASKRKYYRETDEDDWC

Compound	Ki
AKGKGAKASR-NH2 [MVIIA 174]	< 1 µM and 0.525 µM
CSCC[C@@H]1NC(=O)[C@H](CC(C)C)NC(=O)[C@H](CCCNC(=N)N)NC(=O)[C@H](CO)NC(=O)[C@H](C)NC(=O)[C@H](CCCCN)NC(=O)[C@H](C)NC(=O)CNC(=O)[C@H](CCCCN)NC(=O)CNC(=O)[C@H](CCCCN)NC(=O)[C@@H](N)CSSC[C@@H](C(N)=O)NC(=O)[C@H](C)NC(=O)[C@H](CC(=O)O)NC(=O)[C@H](Cc2ccc(O)cc2)NC1=O [MVIIA 171] (H-CKGKGAKASRLMYDAC-NH2; disulfide 1-16)	4.68 µM
C[C@@H]1NC(=O)CNC(=O)[C@H](CCCCN)NC(=O)CNC(=O)[C@H](CCCCN)NC(=O)[C@@H](N)CSSC[C@@H](C(N)=O)NC(=O)[C@H](CCCCN)NC(=O)CNC(=O)[C@H](CO)NC(=O)[C@H](CCCNC(=N)N)NC(=O)[C@H](C)NC(=O)[C@H](C)NC(=O)[C@H](CCCCN)NC1=O [MVIIA 175] (H-CKGKGAKAARSGKC-NH2; disulfide 1-14)	3.63 µM
C[C@@H]1NC(=O)[C@H](CO)NC(=O)[C@H](CO)NC(=O)CNC(=O)[C@@H]2C[C@@H](O)CN2C(=O)[C@H](CO)NC(=O)[C@H](CCCCN)NC(=O)[C@@H](N)CSSC[C@@H](C(N)=O)NC(=O)[C@H](C)NC(=O)[C@H](CC(N)=O)NC(=O)[C@H](Cc2ccc(O)cc2)NC(=O)[C@H](CO)NC(=O)[C@H]([C@@H](C)O)NC(=O)[C@@H]2C[C@@H](O)CN2C(=O)[C@H](CO)NC1=O [GVIA 177] (H-CKS[Hyp]GSSAS[Hyp]TSYNAC-NH2; disulfide 1-16)	> 1000 µM
C[C@@H]1NC(=O)[C@H](C)NC(=O)[C@H](CCCCN)NC(=O)[C@H](CO)NC(=O)CNC(=O)[C@H](CCCCN)NC(=O)[C@H](CO)NC(=O)[C@H](CCCCN)NC(=O)[C@@H](N)CSSC[C@@H](C(N)=O)NC(=O)[C@H](CCCCN)NC(=O)CNC(=O)[C@H](CO)NC(=O)[C@H](CCCNC(=N)N)NC1=O [MVIIA 176] (H-CKSKGSKAARSGKC-NH2; disulfide 1-14)	1.82 µM
CSCC[C@@H]1NC(=O)[C@H](CC(C)C)NC(=O)[C@H](CCCNC(=N)N)NC(=O)[C@H](CO)NC(=O)[C@@H]2CSSC[C@H](NC(=O)[C@H](CC(=O)O)NC(=O)[C@H](Cc3ccc(O)cc3)NC1=O)C(=O)N[C@H](C(N)=O)CSSC[C@H](N)C(=O)N[C@@H](CCCCN)C(=O)NCC(=O)N[C@@H](CCCCN)C(=O)NCC(=O)N[C@@H](C)C(=O)N[C@@H](CCCCN)C(=O)N2 [MVIIA 172]	20.9 µM
C[C@@H]1NC(=O)[C@H](C)NC(=O)[C@H](CO)NC(=O)[C@H](CO)NC(=O)CNC(=O)[C@@H]2C[C@@H](O)CN2C(=O)[C@H](CO)NC(=O)[C@H](CCCCN)NC(=O)[C@@H](N)CSSC[C@@H](C(=O)N[C@@H](Cc2ccc(O)cc2)C(N)=O)NC(=O)[C@H](CCCNC(=N)N)NC(=O)[C@H](CCCCN)NC(=O)[C@H]([C@@H](C)O)NC(=O)[C@H](Cc2ccc(O)cc2)NC(=O)[C@@H]2C[C@@H](O)CN2C(=O)[C@H](CC(N)=O)NC1=O [GVIA 180] (H-CKS[Hyp]GSSAAN[Hyp]YTKRCY-NH2; disulfide 1-16)	123 µM
C[C@@H]1NC(=O)CNC(=O)[C@H](CCCCN)NC(=O)CNC(=O)[C@H](CCCCN)NC(=O)[C@@H](N)CSSC[C@@H](C(=O)N[C@@H](CO)C(=O)N[C@@H](CCCNC(=N)N)C(N)=O)NC(=O)[C@H](CCCCN)NC1=O [MVIIA 170]	< 1 µM and 0.282 µM
CC(=O)NCSC[C@@H]1NC(=O)[C@H](CCCCN)NC(=O)[C@H](C)NC(=O)CNC(=O)[C@H](CCCCN)NC(=O)CNC(=O)[C@H](CCCCN)NC(=O)[C@@H](N)CSSC[C@@H](C(N)=O)NC(=O)[C@H](CCCCN)NC(=O)CNC(=O)[C@H](CO)NC(=O)[C@H](CCCNC(=N)N)NC(=O)[C@H](CSCNC(C)=O)NC1=O [MVIIA 162] (H-CKGKGAKC(Acm)C(Acm)RSGKC-NH2; disulfide 1-14)	< 1 µM and 0.17 µM
CC(=O)NCSC[C@@H]1NC(=O)[C@H](CO)NC(=O)CNC(=O)[C@H]([C@@H](C)O)NC(=O)[C@H](CSCNC(C)=O)NC(=O)[C@@H](N)CSSC[C@@H](C(N)=O)NC(=O)[C@H](CCCCN)NC(=O)CNC(=O)[C@H](CO)NC(=O)[C@H](CCCNC(=N)N)NC1=O [MVIIA 160]	120 µM
CSCC[C@@H]1NC(=O)[C@H](CC(C)C)NC(=O)[C@H](CCCNC(=N)N)NC(=O)[C@H](CO)NC(=O)[C@@H](N)CSSC[C@@H](C(N)=O)NC(=O)[C@H](CO)NC(=O)CNC(=O)[C@H]([C@@H](C)O)NC(=O)[C@H](CSCNC(C)=O)NC(=O)[C@H](CSCNC(C)=O)NC(=O)[C@H](CC(=O)O)NC(=O)[C@H](Cc2ccc(O)cc2)NC1=O [MVIIA 161] (H-CSRLMYDC(Acm)C(Acm)TGSC-NH2; disulfide 1-13)	> 1000 µM
CSCC[C@@H]1NC(=O)[C@H](CC(C)C)NC(=O)[C@H](CCCNC(=N)N)NC(=O)[C@H](CO)NC(=O)[C@H](CSCNC(C)=O)NC(=O)[C@H](CCCCN)NC(=O)[C@H](C)NC(=O)CNC(=O)[C@H](CCCCN)NC(=O)CNC(=O)[C@H](CCCCN)NC(=O)[C@@H](N)CSSC[C@@H](C(N)=O)NC(=O)[C@H](CSCNC(C)=O)NC(=O)[C@H](CC(=O)O)NC(=O)[C@H](Cc2ccc(O)cc2)NC1=O [MVIIA 163]	219 µM
